Assay results from ChEMBL document CHEMBL4130589, “Synthesis of Novel Selenides Bearing Benzenesulfonamide Moieties as Carbonic Anhydrase I, II, IV, VII, and IX Inhibitors” (ACS Med Chem Lett, 2017).

target: Carbonic anhydrase 9 (Homo sapiens, UniProt Q16790); assay: Inhibition of recombinant human carbonic anhydrase 9 incubated for 15 mins by stopped flow CO2 hydrase assay

Row | Structure (SMILES) | Ki [nM]
1 | Cc1ccc(S(=O)(=O)N[C@H](C[Se]c2ccc(S(N)(=O)=O)cc2)C(C)C)cc1 | 10.1
2 | NS(=O)(=O)c1ccc([Se][Se]c2ccc(S(N)(=O)=O)cc2)cc1 | 2.7
3 | NS(=O)(=O)c1ccc([Se]CC(O)CBr)cc1 (stereo not drawn) | 6.5
4 | NS(=O)(=O)c1ccc([Se]CC(O)COCc2ccccc2)cc1 (stereo not drawn) | 10.1
5 | NS(=O)(=O)c1ccc([Se]C2CCCCC2O)cc1 (stereo not drawn) | 8.3
6 | N#C[Se]c1ccc(S(N)(=O)=O)cc1 | 9.3
7 | CC(C)[C@H](N)C[Se]c1ccc(S(N)(=O)=O)cc1 | 2.4
8 | CC(C)[C@@H](C[Se]c1ccc(S(N)(=O)=O)cc1)NC(=O)OC(C)(C)C | 2.3
9 | Cc1ccc(S(=O)(=O)N[C@H](C[Se]c2ccc(S(N)(=O)=O)cc2)Cc2ccccc2)cc1 | 2.4
10 | CC(C)OCC(O)C[Se]c1ccc(S(N)(=O)=O)cc1 (stereo not drawn) | 15.9
11 | C=C(C)[C@@H]1CCC(C)(O)C([Se]c2ccc(S(N)(=O)=O)cc2)C1 (stereo partly drawn) | 2.4
12 | CCCCC(O)C[Se]c1ccc(S(N)(=O)=O)cc1 (stereo not drawn) | 5.6
13 | C=CCOCC(O)C[Se]c1ccc(S(N)(=O)=O)cc1 (stereo not drawn) | 11.9
